The record followed here is US6423689B1, “Peptidyl calcium channel blockers” (Warner-Lambert Company, priority 1997, dated 2002).

Series [1] addresses T1, L-type Ca2+ channels in A10 cells (Rattus norvegicus, UniProt P22002).
T1 construct: which endogenously expresses L-type calcium channels; host or cells: A10 rat aortic smooth muscle cells
Description: Inhibition of L-type calcium flux in A10 cells (FLIPR). It is filed as cell-based. How it is done: Measurement of L-type Ca^2+ Channel Blocking Potencies of Compounds in A10 cells
Calcium flux through voltage-sensitive calcium channels was assessed by time-resolved monitoring of the fluorescence of pre-loaded calcium-sensitive dyes using FLIPR, a fluorescent image plate reader (Molecular Devices Co.). The A10 smooth muscle cell line derived from embryonic thoracic aorta of the DBIX rat (ATCC, CRL-1476) which endogenously expresses L-type calcium channels. The growth media for A10 cells was Ham's F12/DME high glucose (Irvine Scientific, 9052), supplemented with 20% fetal bovine serum (HyClone Labs, A-1115-L), and 1% each of L-glutamine and antibiotic-antimycotic (same source as above).
Cells were grown to confluency and replated on black-sided 96-well plates (Costar, 3603) for use in FLIPR. Two days after replating, growth media was removed and cells were loaded at 37° C. with 100 μL media containing 1 μM Oregon Green 488 Bapta-1 dye (Molecular Probes, O-6807) for 1 to 3 hours. The dye-containing media was then washed away with buffer (composition in mM: 1.25 CaCl2, 1.2 MgSO4, 11 glucose, 10 HEPES, 3.0 KCl, 137.0 NaCl, pH 7.4 with Tris base) in a Denley Cellwash (Labsystems, CW018B). The residual buffer volume was adjusted to 50 μL. A 5 minute drug-pre-incubation period at 35° C. was initiated when 50 μL of drug-containing buffer was pipetted into the cell plate with the 96-well pipettor integrated in the FLIPR apparatus. Fluorescent counts were monitored at 20 second intervals for 360 seconds, beginning 60 seconds prior to the delivery of drug-containing buffer. Following drug addition, 100 μL aliquots of a high K^+, depolarizing stimulus (composition in mM: 1.25 CaCl2, 1.2 MgSO4, 11 glucose, 10 HEPES, 140.0 KCl, pH 7.4 with Tris base) were added to each well and fluorescence was monitored at 1 second intervals for 120 seconds, beginning 10 seconds prior to the stimulus addition. CCD camera exposure time was 0.4 seconds, laser excitation was at 488 nm with a power of 0.2-0.5W, and a 510 to 560 nm bandpass interference filter preceded the camera.
Data was analyzed as a summation of fluorescent counts above basal during the stimulation period (an approximation of area under the curve), after normalizing the data with a spatial uniformity correction (for variations in laser illumination and cell density) and a negative control correction (zero calcium increase defined as the fluorescence reading in the presence of saturating pharmacologic block of the respective calcium channel). Drug effects were expressed as percent inhibition of fluorescence from an average of 8 K^+-stimulated wells which were pre-treated in the drug incubation period with buffer only.
In the A10 cells, the pharmacologic agent used to define zero calcium influx was nitrendipine (RBI, N-144), at a final concentration of 1.0×10^−6 M.
Background: Calcium flux is commonly read through the fluorescence of an indicator in the cells.

Series [2] deals with T2, N-type Ca2+ channels in IMR-32 cells (Homo sapiens, UniProt Q00975).
T2 construct: host or cells: IMR-32 cells, differentiated with dibutyryl cAMP and bromodeoxyuridine
In words: Inhibition of N-type calcium flux in IMR-32 cells (Indo-1 fluorescence, nitrendipine present). Particulars: for inhibition at 1 µM / inhibition at 10 µM: IMR-32; for IC50: IMR-32 cells, 5 μM nitrendipine, K+ depolarization. Format: cell-based. An outline of the steps:
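Differentiated IMR-32 cells (7–13 days) were loaded with 5 μM Indo-1 AM, preincubated with compound for 10 min at 30° C, and depolarized with KCl/CaCl2 stimulation solution, with 5 μM nitrendipine blocking L-channels. Peak-minus-basal 400/490 nm emission ratio was plotted against drug concentration, and IC50 came from four-parameter logistic fits.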

For series [3], the system named is K+ channels in superior cervical ganglion (SCG) neurons. Description: Whole-cell voltage clamp, K+ current in SCG neurons. It is filed as cell-based, rat. Particulars: 10 μM. An outline of the steps: (§1)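 Acutely dissociated (trypsin) SCG neurons under whole-cell voltage clamp, external NaCl/KCl/HEPES buffer pH 7.4, K-gluconate/KCl pipette. From holding potential −65 to −55 mV, 35 msec steps every 10 sec to 0 mV (peak Na+ current) or +50 mV (sustained K+ current); compounds perfused locally to steady-state block, reported as percent inhibition of control.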

The test system of series [4] is Na+ channels in superior cervical ganglion (SCG) neurons. Description: Whole-cell voltage clamp, Na+ current in SCG neurons. It is filed as cell-based, rat. To be noted: 10 μM. An outline of the steps:
as §1

Series [5] concerns the target T3, N-type Ca2+ channels in superior cervical ganglion (SCG) neurons (Rattus norvegicus, UniProt Q02294).
T3 construct: from tissue
In words: Whole-cell voltage clamp, N-type Ca2+ current in SCG neurons. Format: cell-based. The method, boiled down: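 Whole-cell voltage clamp of acutely trypsin-dissociated rat SCG neurons, with TEA/choline external solution (2 mM Ca2+) and Cs-methanesulfonate pipette solution. Currents evoked by 150 ms steps to +20 mV from −65 to −55 mV holding, every 40 s; compounds applied locally, effect as % inhibition of control amplitude.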

T1 sequence (P22002 whole entry): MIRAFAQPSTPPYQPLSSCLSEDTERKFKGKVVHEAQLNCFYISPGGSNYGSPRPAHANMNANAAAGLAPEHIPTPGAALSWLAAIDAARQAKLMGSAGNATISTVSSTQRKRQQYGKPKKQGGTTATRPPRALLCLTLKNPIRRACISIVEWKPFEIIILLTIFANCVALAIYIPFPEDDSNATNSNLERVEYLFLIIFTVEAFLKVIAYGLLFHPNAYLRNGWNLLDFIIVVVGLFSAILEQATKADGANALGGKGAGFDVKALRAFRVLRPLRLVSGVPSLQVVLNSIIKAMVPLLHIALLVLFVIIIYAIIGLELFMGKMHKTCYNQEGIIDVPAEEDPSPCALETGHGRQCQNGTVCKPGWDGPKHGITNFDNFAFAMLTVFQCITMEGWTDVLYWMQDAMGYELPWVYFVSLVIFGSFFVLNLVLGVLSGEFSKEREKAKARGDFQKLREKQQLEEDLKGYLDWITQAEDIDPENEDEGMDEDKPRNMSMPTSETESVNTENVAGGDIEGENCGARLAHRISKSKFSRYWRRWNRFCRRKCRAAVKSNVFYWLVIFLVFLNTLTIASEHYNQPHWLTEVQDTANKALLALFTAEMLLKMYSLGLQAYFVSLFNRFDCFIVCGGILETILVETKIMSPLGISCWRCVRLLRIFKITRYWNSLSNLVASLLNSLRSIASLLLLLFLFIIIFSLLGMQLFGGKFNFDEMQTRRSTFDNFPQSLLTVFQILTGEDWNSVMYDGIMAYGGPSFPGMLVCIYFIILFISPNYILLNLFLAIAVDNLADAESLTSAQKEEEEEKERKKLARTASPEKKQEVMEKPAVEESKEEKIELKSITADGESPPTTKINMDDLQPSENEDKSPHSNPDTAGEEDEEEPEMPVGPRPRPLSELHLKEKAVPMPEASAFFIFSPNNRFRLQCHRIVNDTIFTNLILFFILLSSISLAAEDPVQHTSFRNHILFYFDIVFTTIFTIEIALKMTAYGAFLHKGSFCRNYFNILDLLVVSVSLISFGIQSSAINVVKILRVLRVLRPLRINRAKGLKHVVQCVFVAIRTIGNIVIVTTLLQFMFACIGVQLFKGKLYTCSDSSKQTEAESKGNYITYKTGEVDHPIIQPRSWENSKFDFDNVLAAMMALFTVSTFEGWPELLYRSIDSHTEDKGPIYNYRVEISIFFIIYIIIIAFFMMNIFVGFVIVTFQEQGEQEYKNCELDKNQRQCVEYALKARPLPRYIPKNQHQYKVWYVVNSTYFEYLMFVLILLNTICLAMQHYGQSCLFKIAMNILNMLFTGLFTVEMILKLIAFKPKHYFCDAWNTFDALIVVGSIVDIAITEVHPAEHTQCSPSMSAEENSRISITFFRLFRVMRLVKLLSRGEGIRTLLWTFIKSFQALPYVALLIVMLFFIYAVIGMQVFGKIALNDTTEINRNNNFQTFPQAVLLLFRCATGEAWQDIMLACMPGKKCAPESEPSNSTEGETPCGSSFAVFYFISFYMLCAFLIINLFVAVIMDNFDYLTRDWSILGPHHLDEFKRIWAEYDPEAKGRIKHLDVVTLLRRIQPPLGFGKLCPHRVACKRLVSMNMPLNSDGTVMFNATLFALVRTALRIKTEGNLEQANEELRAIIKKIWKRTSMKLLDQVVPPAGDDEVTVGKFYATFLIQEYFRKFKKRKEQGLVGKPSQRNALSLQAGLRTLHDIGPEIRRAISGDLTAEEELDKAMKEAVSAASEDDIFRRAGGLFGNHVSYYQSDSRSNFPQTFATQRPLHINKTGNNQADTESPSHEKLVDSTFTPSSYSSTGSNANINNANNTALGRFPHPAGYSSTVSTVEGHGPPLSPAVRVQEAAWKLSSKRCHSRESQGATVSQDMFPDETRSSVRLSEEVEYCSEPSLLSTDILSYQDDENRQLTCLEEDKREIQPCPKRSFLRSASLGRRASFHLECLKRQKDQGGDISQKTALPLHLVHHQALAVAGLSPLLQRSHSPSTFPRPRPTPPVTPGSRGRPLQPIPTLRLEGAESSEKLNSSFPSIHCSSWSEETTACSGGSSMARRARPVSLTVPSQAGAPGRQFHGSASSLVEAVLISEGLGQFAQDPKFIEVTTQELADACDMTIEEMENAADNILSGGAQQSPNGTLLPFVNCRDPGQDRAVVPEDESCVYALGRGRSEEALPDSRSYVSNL
T1 sequence (P54290 25-944 partner limits assumed): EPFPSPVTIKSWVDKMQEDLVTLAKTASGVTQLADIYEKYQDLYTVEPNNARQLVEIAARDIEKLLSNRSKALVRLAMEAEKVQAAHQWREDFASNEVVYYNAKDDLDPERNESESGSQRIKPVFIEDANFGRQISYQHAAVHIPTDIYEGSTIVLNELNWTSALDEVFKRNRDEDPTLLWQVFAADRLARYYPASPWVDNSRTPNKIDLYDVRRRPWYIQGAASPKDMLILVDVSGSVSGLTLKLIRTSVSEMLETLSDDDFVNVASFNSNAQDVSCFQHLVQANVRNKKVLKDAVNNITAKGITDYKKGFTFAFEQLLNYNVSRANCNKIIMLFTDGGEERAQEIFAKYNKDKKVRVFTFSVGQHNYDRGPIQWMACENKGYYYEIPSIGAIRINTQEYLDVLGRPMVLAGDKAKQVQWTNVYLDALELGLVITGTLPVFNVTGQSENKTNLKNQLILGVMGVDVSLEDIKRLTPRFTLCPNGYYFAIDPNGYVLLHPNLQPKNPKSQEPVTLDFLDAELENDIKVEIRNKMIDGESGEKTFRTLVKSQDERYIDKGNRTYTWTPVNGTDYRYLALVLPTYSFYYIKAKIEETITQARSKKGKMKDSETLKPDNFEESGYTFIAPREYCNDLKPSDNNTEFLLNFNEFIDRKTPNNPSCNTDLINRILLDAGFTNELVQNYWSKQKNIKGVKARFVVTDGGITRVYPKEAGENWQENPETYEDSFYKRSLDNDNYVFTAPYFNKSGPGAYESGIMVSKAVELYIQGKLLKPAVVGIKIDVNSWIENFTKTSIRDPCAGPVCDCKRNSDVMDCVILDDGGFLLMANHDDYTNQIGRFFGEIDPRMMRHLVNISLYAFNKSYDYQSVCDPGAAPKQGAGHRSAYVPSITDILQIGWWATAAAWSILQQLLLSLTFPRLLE
T1 sequence (P54290 945-1091 partner limits assumed): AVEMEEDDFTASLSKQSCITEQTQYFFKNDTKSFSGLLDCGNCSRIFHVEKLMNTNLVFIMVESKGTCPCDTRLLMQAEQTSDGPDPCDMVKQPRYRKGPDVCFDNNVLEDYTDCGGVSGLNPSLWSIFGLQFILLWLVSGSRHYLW
T1 sequence (P54287 whole entry partner): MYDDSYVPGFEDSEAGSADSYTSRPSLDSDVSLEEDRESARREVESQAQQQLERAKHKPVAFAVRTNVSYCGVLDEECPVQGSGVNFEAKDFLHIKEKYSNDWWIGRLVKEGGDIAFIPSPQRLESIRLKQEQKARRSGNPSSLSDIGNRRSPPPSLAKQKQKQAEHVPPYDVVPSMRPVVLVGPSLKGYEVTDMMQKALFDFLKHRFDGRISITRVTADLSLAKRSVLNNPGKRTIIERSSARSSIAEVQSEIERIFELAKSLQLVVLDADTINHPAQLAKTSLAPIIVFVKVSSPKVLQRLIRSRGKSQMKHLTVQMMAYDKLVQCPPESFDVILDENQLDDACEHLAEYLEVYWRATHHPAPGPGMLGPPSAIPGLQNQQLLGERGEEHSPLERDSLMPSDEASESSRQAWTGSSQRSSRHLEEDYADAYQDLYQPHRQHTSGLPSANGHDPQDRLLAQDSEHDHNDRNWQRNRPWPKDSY

Take `COc1cc(NC(=O)N[C@@H](CC(C)C)C(=O)N[C@@H](Cc2ccc(OCc3ccccc3)cc2)C(=O)OC(C)(C)C)cc(OC)c1OC` (relative stereo) [Example 67, [S-(R*,R*)]-3-(4-Benzyloxy-phenyl)-2-{4-methyl-2-[3-(3,4,5-trimethoxy-phenyl)-ureido]-pentanoylamino}-propionic acid tert-butyl ester]: the IC50 in series [1] came out at 3000 nM. In addition, the “Inhibition of Calcium Flux in IMR-32 Cells % Inhibition at 1 μM” value in series [2] (1 μM) came to 10%. Further, the “Inhibition of Calcium Flux in IMR-32 Cells % Inhibition at 10 μM” value in series [2] (10 μM) is listed as 19%.

`CC(C)C[C@H](NC(=O)N1CCCCCC1)C(=O)N[C@](C)(Cc1ccc(OCc2ccccc2)cc1)C(=O)OC(C)(C)C` [Example 11B, 2(R)-{2(S)-[(Azepane-1-carbonyl)-amino]-4-methyl-pentanoylamino}-3-(4-benzyloxy-phenyl)-2-methyl-propionic acid tert-butyl ester] yielded a melting point of 62 to 66 °C. Further, the “Inhibition of K+ Current, % Inhibition at 10 μM” value in series [3] was 46%. Moreover, the “Inhibition of Na+ Current, % Inhibition at 10 μM” value in series [4] turned out to be 48%. Moreover, in series [2], the inhibition at 1 µM is 35%, the inhibition at 10 µM was 80% and the IC50 was determined as 2300 nM. This compound yielded an inhibition at 10 µM in series [5] of 17%.

`CC(C)C[C@H](NC(=O)N1CCCCCC1)C(=O)N[C@@H](Cc1ccc(OC(C)(C)C)cc1)C(=O)OC(C)(C)C` [Example 12, [S-(R*,R*)]-2-{2-[(Azepane-1-carbonyl)-amino]-4-methyl-pentanoylamino}-3-(4-tert-butoxy-phenyl)-propionic acid tert-butyl ester] returned a melting point of 87 to 90 °C. In addition, the “Inhibition of K+ Current, % Inhibition at 10 μM” value in series [3] amounted to 38%. Moreover, the “Inhibition of Na+ Current, % Inhibition at 10 μM” value in series [4] worked out at 14%. Besides, in series [2], the inhibition at 1 µM turned out to be 57%, the inhibition at 10 µM is 95% and the IC50 stood at 480 nM. 10 µM produced 65% inhibition in series [5]. Moreover, the IC50 in series [5] (read-out: Inhibition of N-type Ca2+ Current IC50) was determined as 6780 nM.

Compound `CC(C)C[C@H](NC(=O)N1CCCCCC1)C(=O)N[C@@H](Cc1ccc(Cc2ccccc2)cc1)C(=O)NC(C)(C)C` [Example 53, [S-(R*,R*)]-Azepane-1-carboxylic acid {1-[2-(4-benzyl-phenyl)-1-tert-butylcarbamoyl-ethylcarbamoyl]-3-methyl-butyl}-amide] registered a melting point of 165 to 166 °C. In series [1], the IC50 came to 140 nM. Besides, in series [2], the inhibition at 1 µM was found to be 61% and the inhibition at 10 µM was determined as 89%.

In the case of `CC(C)C[C@H](NC(=O)N1CCCCCC1)C(=O)N[C@@H](Cc1ccc(NCc2ccccc2)cc1)C(=O)NC(C)(C)C` [Example 132, [S-(R*,R*)]-Azepane-1-carboxylic acid {1-[2-(4-benzylamino-phenyl)-1-tert-butylcarbamoyl-ethylcarbamoyl]-3-methyl-butyl}-amide], the melting point lay within 89 to 90 °C. Moreover, the IC50 in series [1] is 910 nM. Besides, in series [2], the inhibition at 1 µM is 37%, the inhibition at 10 µM worked out at 83% and the IC50 is 900 nM.

`CC(C)C[C@H](NC(=O)N1CCCCCC1)C(=O)N[C@@H](Cc1ccc(C#CC(C)(C)C)cc1)C(=O)NC(C)(C)C` [Example 135, [S-(R*,R*)]-Azepane-1-carboxylic acid (1-{1-tert-butylcarbamoyl-2-[4-(3,3-dimethyl-but-1-ynyl)-phenyl]-ethylcarbamoyl}-3-methyl-butyl)-amide] registered a melting point of 180 to 181 °C. The IC50 in series [1] was 670 nM. In addition, in series [2], the inhibition at 1 µM turned out to be 43% and the inhibition at 10 µM is 71%.

In turn, `CC(C)C[C@H](NC(=O)N1CCCCCC1)C(=O)N[C@@H](Cc1ccc(C#CC2CCCCC2)cc1)C(=O)NC(C)(C)C` [Example 136, [S-(R*,R*)]-Azepane-1-carboxylic acid {1-[1-tert-butylcarbamoyl-2-(4-cyclohexylethynyl-phenyl)-ethylcarbamoyl]-3-methyl-butyl}-amide] came in with a melting point of 171 to 172 °C. Moreover, in series [1], the IC50 stood at 1550 nM. Besides, in series [2], the inhibition at 1 µM came out at 45% and the inhibition at 10 µM amounted to 64%.

Regarding `CC(C)C[C@H](NC(=O)N1CCCCCC1)C(=O)N[C@@H](Cc1ccc(C#Cc2ccccn2)cc1)C(=O)NC(C)(C)C` [Example 137, [S-(R*,R*)]-Azepane-1-carboxylic acid {1-[1-tert-butylcarbamoyl-2-(4-pyridin-2-ylethynyl-phenyl)-ethylcarbamoyl]-3-methyl-butyl}-amide], the half-maximal inhibitory concentration (IC50) in series [1] was 2600 nM.

In turn, `CC(C)C[C@H](NC(=O)N1CCCCCC1)C(=O)N[C@@H](Cc1ccc(C#CCN2CCS(=O)(=O)CC2)cc1)C(=O)NC(C)(C)C` [Example 140, [S-(R*,R*)]-Azepane-1-carboxylic acid [1-(1-tert-butylcarbamoyl-2-{4-[3-(1,1-dioxo-1l,6-thiomorpholin-4-yl)-prop-1-ynyl]-phenyl}-ethylcarbamoyl)-3-methyl-butyl]-amide] yielded a melting point of 117 to 118 °C. For the same compound, the IC50 in series [1] stood at 3000 nM.

`CC(C)C[C@H](NC(=O)N1CCCCCC1)C(=O)N[C@@H](Cc1ccc(/C=C\C2CCCCC2)cc1)C(=O)NC(C)(C)C` [Example 142, [S-(R*,R*),Z]-Azepane-1-carboxylic acid (1-{1-tert-butylcarbamoyl-2-[4-(2-cyclohexyl-vinyl)-phenyl]-ethylcarbamoyl}-3-methyl-butyl)-amide] had a melting point of 168 to 169 °C. For the same compound, the IC50 in series [1] came to 680 nM.

For the compound `CC(C)C[C@H](NC(=O)N1CCCCCC1)C(=O)N[C@@H](Cc1ccc(C=CC2(O)CCCCC2)cc1)C(=O)NC(C)(C)C` [Example 143, [S-(R*,R*)]-Azepane-1-carboxylic acid [1-(1-tert-butylcarbamoyl-2-{4-[2-(1-hydroxy-cyclohexyl)-vinyl]-phenyl}-ethylcarbamoyl)-3-methyl-butyl]-amide], the melting point is 125 °C (dec.). Also, in series [1], the IC50 was 1300 nM. In series [2], the inhibition at 1 µM was 7% and the inhibition at 10 µM turned out to be 58%.

`CC(C)C[C@H](NC(=O)N1CCCCCC1)C(=O)N[C@@H](Cc1ccc(CCCN2CCS(=O)(=O)CC2)cc1)C(=O)NC(C)(C)C` [Example 150, [S-(R*,R*)]-Azepane-1-carboxylic acid [1-(1-tert-butylcarbamoyl-2-{4-[3-(1,1-dioxo-1l,6-thiomorpholin-4-yl)-propyl]-phenyl}-ethylcarbamoyl)-3-methyl-butyl]-amide]: the melting point lay in the range of 92 to 93 °C. The IC50 in series [1] worked out at 3000 nM.

For the compound `CC(C)C[C@H](NC(=O)N1CCCCCC1)C(=O)N[C@@H](Cc1ccc(OCc2ccccc2)cc1)C(=O)NCCN1CCOCC1` [Example 186, [S-(R*,R*)]-Azepane-1-carboxylic acid {1-[2-(4-benzyloxy-phenyl)-1-(2-morpholin-4-ylethylcarbamoyl)-ethylcarbamoyl]-3-methyl-butyl}-amide], the IC50 worked out at 3000 nM in series [1] and 1800 nM in series [2].

What is called IC50 is the midpoint of a concentration-inhibition curve. The melting point is the temperature, or range, at which the solid turns liquid. One may read the inhibition as the drop in the measured response relative to a control, in per cent.
